The values that follow come from EP4094756A1 (priority 2021, dated 2022).

Where two headings read alike, the source gives them in different places.

The test system of data set [1] is VSV-ΔG SARS CoV-2 S pseudovirus. The class given is cell-based.
Data set [2] in a line: MTT assay (cell survival). To be noted: monkey, vero cells.
Procedure: (§1) Also, controls (solvent, Staurosporin (1 µM)) were prepared. Supernatants of cells were removed and substances applied for 8h, 24h and 48h at 37°C. • On day 2-4: fresh MTT [3-(4,5-Dimethylthiazol-2yl)-2,5-diphenyl-tetrazolium-bromid] was diluted in PBS to a final concentration of 5 mg/ml and 25 µl/well of MTT-solution were directly added to the wells and incubated for 1 h at 37°C. • MTT supernatant was removed and cells were lysed by 50 µl/well of 100 % DMSO and incubated for 1-5 minutes at room temperature. • Measurements were done at 562 nm in a photometer and % cell survival were calculated as = 100 × OD (sample) / OD (control).
Another data set concerns SARS CoV-2. The class given is cell-based.
The next data set can be described thus: in vitro. To be noted: monkey, vero cells.
For data set [3] the following is noted: human, in vivo, iv; cited from earlier work.

Procedure for in vitro: as §1

Consider `CC(C)=CCC[C@]1(C)[C@@H](CC=C(C)C)C[C@]2(CC=C(C)C)C(=O)C(CC=C(C)C)=C(O)[C@@]1(C(=O)C(C)C)C2=O` [Hyperforin, hyperforin, reference compound], for which the “impact on the VSV pseudovirus” value in data set [1] is listed as “did not have comparable impact”.
Turning to `Cc1cc(O)c2c(=O)c3c(O)cc(O)c4c5c(O)cc(O)c6c(=O)c7c(O)cc(CO)c8c1c2c(c34)c(c65)c78` [Pseudohypericin, pseudohypericin], the “inhibition of the VSV pseudovirus” value in data set [1] (1µg/ml) is recorded as “clearly inhibited”. Also, the MNTC in data set [2] turned out to be 1 µg/mL.
As to `Oc1cc(O)c2c(c1)O[C@H](c1ccc(O)c(O)c1)[C@H](O)[C@H]2c1c(O)cc(O)c2c1O[C@H](c1ccc(O)c(O)c1)[C@H](O)[C@H]2c1c(O)cc(O)c2c1O[C@H](c1ccc(O)c(O)c1)[C@H](O)C2` [Procyanidin C1, reference compound], the “effect on the VSV pseudovirus” value in data set [1] was “no significant inhibition”. In data set [2], this compound showed an MNTC of 50 µM.
For the compound `Cc1cc(O)c2c(=O)c3c(O)cc(O)c4c5c(O)cc(O)c6c(=O)c7c(O)cc(C)c8c1c2c(c34)c(c78)c65` [Hypericin, hypericin], the “viral load in diseased cells (PFU/ml)” value in the data set with SARS CoV-2 was “dramatically lowers the viral load”. In “in vitro”, this compound gave an MNTC of 1 µg/mL. Moreover, the “initial peak plasma levels” value in data set [3] was 29.5 ng/mL. Also, the “inhibition of the VSV pseudovirus” value in data set [1] is “clearly inhibited”.
